From patent US5130414A, “Isolation and structural elucidation of the cyclic peptide hymenistatin 1” (Arizona Board of Regents, a body corporate of Arizona State …, priority 1989, dated 1992)

Test system: murine P388 lymphocytic leukemia (PS system)
Assay: PS system cell growth inhibition (P388 murine leukemia cell line, N.C.I. Protocol)
Format: cell-based

With “cyclo [Hymenistatin 1, cyclo [Pro^a -Pro^b -Tyr-Val-Pro^c -Leu-Ili-Ile]]” the “PS ED50” value was 3.5 µg/mL.
